What is called CC50 is the concentration that lowers cell viability or growth by half. Lower therefore signals greater toxicity to the cells. As a reminder, the MIC is the smallest concentration in the dilution series that meets the test's criterion for growth inhibition. A higher MIC goes with a less susceptible organism. The IC50 is the concentration needed to halve the response being measured. A high value points to weaker potency.

Assay [1] has as its system ScN2a. As to the kind of experiment: Cytotoxicity against mouse ScN2a cells. The class given is functional.
Assay [2] relates to Jurkat. As to the kind of experiment: Cytotoxicity against human Jurkat cells. The class given is functional, cell-based.
Assay [3] concerns Bacillus subtilis. As to the kind of experiment: Antimicrobial activity against Bacillus subtilis. Format: functional.
Assay [4] relates to Escherichia coli. The experiment in a line: Antimicrobial activity against Escherichia coli. The class given is functional.
Assay [5] deals with Saccharomyces cerevisiae. As to the kind of experiment: Antimicrobial activity against Saccharomyces cerevisiae. Format: functional.

Compound `N#Cc1c(N)nc(Sc2ccc(Cl)cc2)c(C#N)c1-c1ccccc1` returned an Activity in assay [1] of 35 µM.

In assay [1], `N#Cc1c(N)nc(Sc2ccccc2N)c(C#N)c1-c1ccco1` returned an Activity of 18 µM.

In assay [2], `CC1=C(/C=C/C2=Cc3ncnc(N)c3C(C)(/C=C/C3=C(C)CCCC3(C)C)C2)C(C)(C)CCC1` (stereo unspecified) came in with a CC50 of 12.8 µM. Besides, the results for the MIC in assay [3], in assay [4] and in assay [5] were no less than 163 µM, no less than 189 µM and no less than 197 µM, respectively.

`CC1(c2ccc(-c3ccccc3)cc2)CC(c2ccc(-c3ccccc3)cc2)=Cc2ncnc(N)c21` (stereo unspecified): in assay [2], the CC50 was 10.4 µM. The MIC is no less than 163 µM in assay [3], no less than 189 µM in assay [4] and no less than 197 µM in assay [5].

`CC1(c2ccc(Br)s2)CC(c2ccc(Br)s2)=Cc2ncnc(N)c21` (stereo unspecified) displayed a CC50 in assay [2] of 9.51 µM. The results for the MIC in assay [3], in assay [4] and in assay [5] were no less than 163 µM, no less than 189 µM and no less than 197 µM, respectively.

Turning to `CC1(c2ccccc2)CC(c2ccccc2)=Cc2ncnc(N)c21` (stereo unspecified), the CC50 in assay [2] was found to be 17.6 µM. For the same compound, the results for the MIC in assay [3], in assay [4] and in assay [5] were no less than 163 µM, no less than 189 µM and no less than 197 µM, respectively.

Compound `N#Cc1c(N)nc(Sc2ccc(Cl)cc2)c(C#N)c1-c1cccs1` displayed an Activity in assay [1] of 16 µM.

As for `N#Cc1c(N)nc(Sc2ccc(Cl)cc2)c(C#N)c1-c1ccco1`, the Activity in assay [1] turned out to be 19 µM.

Regarding `CC1(c2ccc(Br)cc2)CC(c2ccc(Br)cc2)=Cc2ncnc(N)c21` (stereo unspecified), in assay [2], the CC50 came to 12.7 µM. Further, the MIC in assay [3] is no less than 163 µM; in assay [4] it was no less than 189 µM; in assay [5] it was no less than 197 µM.

Compound `CC1(c2ccc(Br)cc2)CC(c2ccc(Br)cc2)=CC(N)=C1C#N` (stereo unspecified) gave a 50% cytotoxic concentration (CC50) in assay [2] of 20.5 µM. For the same compound, the MIC is no less than 163 µM in assay [3], no less than 189 µM in assay [4] and no less than 197 µM in assay [5].

As to `CC1(c2ccccc2)CC(c2ccccc2)=CC(N)=C1C#N` (stereo unspecified), in assay [2], the midpoint of cytotoxicity, the CC50, lay at 15.1 µM. The MIC is no less than 163 µM in assay [3], no less than 189 µM in assay [4] and no less than 197 µM in assay [5].

Regarding `CCCCCCC1=CC(N)=C(C#N)C(C)(CCCCCC)C1` (stereo unspecified), half-maximal cytotoxicity in assay [2] (CC50) was put at 46.8 µM. Further, the results for the MIC in assay [3], in assay [4] and in assay [5] were no less than 163 µM, no less than 189 µM and no less than 197 µM, respectively.

Take `CCCCCCC1=Cc2ncnc(N)c2C(C)(CCCCCC)C1` (stereo unspecified): the CC50 in assay [2] was 12.6 µM. Besides, the MIC was no less than 163 µM in assay [3], no less than 189 µM in assay [4] and no less than 197 µM in assay [5].

`CC1(c2ccc3ccccc3c2)CC(c2ccc3ccccc3c2)=Cc2ncnc(N)c21` (stereo unspecified) had a CC50 in assay [2] of 9.37 µM. For the same compound, the MIC was no less than 163 µM in assay [3], no less than 189 µM in assay [4] and no less than 197 µM in assay [5].

Take `CC1(c2cccs2)CC(c2cccs2)=Cc2ncnc(N)c21` (stereo unspecified): the CC50 in assay [2] was determined as 15.4 µM. The MIC is no less than 163 µM in assay [3], no less than 189 µM in assay [4] and no less than 197 µM in assay [5].

As for `CC1(c2ccc(F)cc2)CC(c2ccc(F)cc2)=Cc2ncnc(N)c21` (stereo unspecified), in assay [2], half-maximal cytotoxicity (CC50) was put at 3.24 µM. The MIC in assay [3] is no less than 163 µM; in assay [4], no less than 189 µM; in assay [5], no less than 197 µM.

In the case of `CC1(c2cccs2)CC(c2cccs2)=CC(N)=C1C#N` (stereo unspecified), the CC50 in assay [2] was 172 µM. Besides, the MIC is no less than 163 µM in assay [3], no less than 189 µM in assay [4] and no less than 197 µM in assay [5].

On to `CC1(c2ccc3ccccc3c2)CC(c2ccc3ccccc3c2)=CC(N)=C1C#N` (stereo unspecified), for which the IC50 in assay [2] amounted to 19 µM. Moreover, the figures for the MIC in assay [3], in assay [4] and in assay [5] were no less than 163 µM, no less than 189 µM and no less than 197 µM, respectively.

On to `CC1(c2ccc(-c3ccccc3)cc2)CC(c2ccc(-c3ccccc3)cc2)=CC(N)=C1C#N` (stereo unspecified), for which the CC50 in assay [2] was determined as 19.3 µM. Further, the results for the MIC in assay [3], in assay [4] and in assay [5] were no less than 163 µM, no less than 189 µM and no less than 197 µM, respectively.

In turn, `CC1(c2ccc(Br)s2)CC(c2ccc(Br)s2)=CC(N)=C1C#N` (stereo unspecified) had a CC50 in assay [2] of 13.9 µM. The results for the MIC in assay [3], in assay [4] and in assay [5] were no less than 163 µM, no less than 189 µM and no less than 197 µM, respectively.

`CC1=C(/C=C/C2=CC(N)=C(C#N)C(C)(/C=C/C3=C(C)CCCC3(C)C)C2)C(C)(C)CCC1` (stereo unspecified) yielded a CC50 in assay [2] of 12.7 µM. The results for the MIC in assay [3], in assay [4] and in assay [5] were no less than 163 µM, no less than 189 µM and no less than 197 µM, respectively.

In turn, `CC1(c2ccc(F)cc2)CC(c2ccc(F)cc2)=CC(N)=C1C#N` (stereo unspecified) gave a CC50 in assay [2] of 19.4 µM. Besides, the minimal inhibitory concentration (MIC) in assay [3] was no less than 163 µM; in assay [4], no less than 189 µM; in assay [5] it was no less than 197 µM.

Source of the values: ChEMBL document CHEMBL1144832, “An efficient one-pot synthesis of tethered cyclohexadiene enaminonitriles from methyl-ketones: an effective route to quinazolines” (Bioorg Med Chem Lett, 2008).
